{"source": "patent US20150225454A1", "about": "“TETRABRANCHED PEPTIDES AND ANALOGUES AS A NEW CLASS OF ANTIMICROBIALS AND THEIR PREPARATION THEREOF” (priority 2012, published 2015)", "key": {"[1]": {"test_system": "C. albicans", "format": "cell-based", "conditions": "50% tear fluid", "method": "For all the experiments, unless otherwise stated, ATCC 10231 strain was used. B4010 (1 mg/ml) was incubated with trypsin (enzyme:peptide ratio 1:100) at 37° C. 20 μL aliquot of this mixture was withdrawn at various time intervals (0.5, 1, 2, 4 and 6 h) and mixed with 1 μL of trypsin inhibitor. The antifungal activity of the peptide was determined by adding this mixture to 180 μl of inoculum and monitoring the growth at OD600 for 24 h. Similar experiments performed in the presence of trypsin/trypsin inhibitor (without B4010) were used as a positive control. For assessing the antifungal activity in tear fluid (TF), the peptide was dissolved in freshly collected rabbit TF and incubated at 37° C. for 6 h. After incubation, an equal volume of an overnight culture of C. albicans (˜10^6 CFU/ml) was mixed with peptides in tear fluid and incubated at 37° C. for 24 h. The final concentrations of the peptide were at 4.4, 8.8 and 22 μM. A 100 μL aliquot of serial dilutions (10^2 or 10^3 times) of this mixture were inoculated on a SD agar plate and then incubated for 48 h at 37° C. Culture alone and culture with 50% tear fluid served as the positive control. The data was expressed in % killing with respect to culture without tear fluid."}, "[2]": {"test_system": "C. albicans 2672R and C. albicans 1976R", "format": "cell-based", "conditions": "two clinical isolates", "method": "The effect of 5% human serum on the activities of B4010 against two C. albicans clinical isolates was determined. The human male serum was centrifuged at 13,000 rpm for 10 mins in order to remove the lipids and the supernatant was collected. The MIC values against clinical isolates of C. albicans 2672R and C. albicans 1976R were determined both in standard medium (SD broth) as well as in standard medium containing 5% serum supernatant as before."}, "[3]": {"test_system": "IOBA-NHC cells", "format": "cell-based, human", "conditions": "24 h incubation; read-out: EC50 (concentration that reduces the viable cells by 50%)", "in_short": "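Subconfluent (~70%) IOBA-NHC conjunctival cells, passages 50–80, seeded ~10,000/well and grown 24 h at 37 °C in supplemented DMEM/F12 with 10% FBS. Exposed to peptide at 0.22–225 μM; cytotoxicity followed over time by MultiTox-Fluor […] fluorescence (ex 485/em 520 nm).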"}, "[4]": {"test_system": "S. cerevisiae", "format": "cell-based", "method": "A few identical colonies from WT and mutant strains were immediately inoculated and grown overnight in SD broth containing 0.1 mg/ml ampicilin at 30° C. Cells were harvested by centrifugation, washed with sterile water and frozen. Cells were plated again on SD agar plates and incubated at 37° C. for 48 h. Two or three identical colonies of the mutant strains were collected and inoculated in SD broth. Peptides were dissolved in sterile water and mixed with WT and mutant strains and incubated at 37° C. for 48 or 72 h in a test tube. The lowest concentration of the peptide that inhibited the growth of the yeast strain was determined by visual inspection."}, "[5]": {"test_system": "C. albicans (ATCC 10231)", "experiment": "SYTOX Green (SG) uptake assay", "format": "cell-based"}, "[6]": {"experiment": "Calcein release from mammalian model membrane SUVs", "conditions": "PC:Cholesterol, compared with fungal model membrane", "method": "Small unilamellar vesicles (SUVs) were prepared using PC/PE/PI or PS lipids (5:2.5:2.5) containing 15 wt % ergosterol or PC/Cholesterol (10:1) (Makovitzki et al., 2006). For the preparation of PC/PE/PI or PS/Erg SUV, the lipids were dissolved in chloroform/methanol (2:1, v/v) in a glass tube. Ergosterol was dissolved in same solvent and added to lipid mixture to make final ergosterol content of 15 wt %. The Lipid-ergosterol mixture was dried using nitrogen gas to form lipid layer. The film was hydrated in a buffer containing 20 mM PBS (pH 7), vortexed and sonicated. Each cycle of sonication (5 sec, 40° C.) is followed by freezing in liquid nitrogen and thawing on a water bath kept at 37° C. The procedure was repeated 5-6 times until an optically clear dispersion appeared. The SUV was divided into two parts. To the first part 50 mM calcein was added and incubated for 1 h. […] Changes in the fluorescence signal after addition of peptide or Triton X-100 was measured on a PTI spectrofluorometer, using an excitation wavelength of 480 nm and emission wavelength of 512 nm. The Percentage calcein released at each time point was calculated using the equation: […]\nWhere A0 is the observed fluorescence intensity upon addition of peptides, Amin is the average intensity at the baseline (before peptide addition), Amax is the average intensity at the saturation phase after adding 1% Triton X-100. […]"}}, "note": "Where two headings read alike, the source gives them in different places. Where a SMILES comes first, the peptide text is derived from it. Bridges are numbered along the chain shown (N, C = ends). Roman numbers before positions name the chains, in order.", "data": [{"smiles": "CC(C)[C@H](NC(=O)[C@H](CCCCN)NC(=O)[C@H](CCCNC(=N)N)NC(=O)CNC(=O)[C@@H](N)CCCNC(=N)N)C(=O)N[C@H](C(=O)N[C@@H](CCCNC(=N)N)C(=O)N[C@@H](CCCNC(=N)N)C(=O)NCCCC[C@H](NC(=O)[C@H](CCCNC(=N)N)NC(=O)[C@H](CCCNC(=N)N)NC(=O)[C@@H](NC(=O)[C@@H](NC(=O)[C@H](CCCCN)NC(=O)[C@H](CCCNC(=N)N)NC(=O)CNC(=O)[C@@H](N)CCCNC(=N)N)C(C)C)C(C)C)C(=O)NCCCC[C@H](NC(=O)[C@H](CCCCNC(=O)[C@H](CCCNC(=N)N)NC(=O)[C@H](CCCNC(=N)N)NC(=O)[C@@H](NC(=O)[C@@H](NC(=O)[C@H](CCCCN)NC(=O)[C@H](CCCNC(=N)N)NC(=O)CNC(=O)[C@@H](N)CCCNC(=N)N)C(C)C)C(C)C)NC(=O)[C@H](CCCNC(=N)N)NC(=O)[C@H](CCCNC(=N)N)NC(=O)[C@@H](NC(=O)[C@@H](NC(=O)[C@H](CCCCN)NC(=O)[C@H](CCCNC(=N)N)NC(=O)CNC(=O)[C@@H](N)CCCNC(=N)N)C(C)C)C(C)C)C(=O)N[C@@H](CCCCN)C(=O)O)C(C)C", "note": "[Peptide B4010] (I: H-RGRKVVRRKKK-OH / II: H-RGRKVVRRK / III: H-RGRKVVRR / IV: H-RGRKVVRR; amide I:9-IV:C, I:10-II:C, II:9-III:C; N-terminus and C-terminus assumed)", "values": [{"measurement": "candidacidal activity", "setting": "[1]; 22 μM", "value": "no loss of activity"}, {"measurement": "candidacidal activity", "setting": "[1]; 4.4 and 8.8 μM", "value": "moderately suppressed"}, {"measurement": "MIC", "setting": "[2]; 5% human serum", "value": 5.5, "unit": "µM"}, {"measurement": "MIC", "setting": "[2]; without serum", "value": 0.34, "unit": "µM"}, {"measurement": "EC50", "setting": "[3]", "value": 220, "unit": "µM"}, {"measurement": "MIC", "setting": "[4]; RH448, Wildtype, Ergosterol (77%)", "value": 5.5, "unit": "µM"}, {"measurement": "MIC", "setting": "[4]; RH5684, erg6Δ", "value": 2.8, "unit": "µM"}, {"measurement": "MIC", "setting": "[4]; RH5812, erg2Δ", "value": 1.4, "unit": "µM"}, {"measurement": "MIC", "setting": "[4]; RH5930, erg3Δerg6Δ", "value": 1.4, "unit": "µM"}, {"measurement": "MIC", "setting": "[4]; RH6826, 7-deoxycholesterol", "value": 2.8, "unit": "µM"}, {"measurement": "MIC", "setting": "[4]; RH6827, Campasterol", "value": 2.8, "unit": "µM"}, {"measurement": "MIC", "setting": "[4]; RH6829, Cholesterol", "value": 2.8, "unit": "µM"}, {"measurement": "decrease in MIC of ergΔ mutants compared to the wild type", "setting": "[4]; all the ergΔ mutants", "value": "2-4 fold"}, {"measurement": "decrease in MIC compared to the wild type", "setting": "[4]; erg2Δ, erg3Δ, erg3Δerg6Δ and erg4Δerg5Δ", "value": 4, "unit": "folds"}, {"measurement": "increased sensitivity compared to the wild type", "setting": "[4]; erg2Δerg6Δ and erg6Δ", "value": 2, "unit": "fold"}, {"measurement": "SG uptake (permeation)", "setting": "[5]; 1×MIC", "value": 24, "unit": "%"}, {"measurement": "cells membrane compromised", "setting": "[5]; 2×MIC, 10 mins", "value": "About 70%"}, {"measurement": "dye uptake", "setting": "[5]; 4×MIC, within 25 mins", "value": "> 90", "unit": "%"}, {"measurement": "SG uptake (permeation)", "setting": "[5]; ½×MIC", "value": 13, "unit": "%"}, {"measurement": "calcein leakage", "setting": "[6]", "value": "less calcein leakage"}]}]}
